In ChEMBL document CHEMBL5724696, “Autophagy assay results for EUbOPEN Chemogenomics Library” (2024) one finds ER-phagy suppression data, which are given here for 15 molecules.

Assay [1] deals with U2OS. Briefly: (§1) Here: values are normalized to the positive (DMSO; basel flux = defined as 100% suppression) and negative (250nM Torin1; mTOR inhibitor; maximal inducer of autophagy defined as 0% suppression) control compounds and represented as % of ER-phagy suppression. […] The impact of autophagy induction on cells is complex and depends on the affected target. […] Of note, treatment concentrations may be sub-optimal for specific compounds, leading to false negative annotations. It counts as functional, Homo sapiens. As to conditions: Compound Concentration 1 uM, Culturing Media DMEM, 1 % Penicillin/Streptomycin, 10% Fetal bovin serum Add-On: blasticidin, Screening Media Control DMEM, 10% Fetal bovin serum Add-On: 1 µg/ml Doxycyclin, Screening Media Samples DMEM, 10% Fetal bovin serum Add-On: 1 µg/ml Doxycyclin 250nM Torin1.

Assay [2] has as its system U2OS. The assay is described as §1. It counts as functional, Homo sapiens. The settings on record: Compound Concentration 1 uM, Culturing Media DMEM, 1 % Penicillin/Streptomycin, 10% Fetal bovin serum Add-On: blasticidin, Screening Media Control DMEM, 10% Fetal bovin serum Add-On: 1 µg/ml Doxycyclin, Screening Media Samples DMEM, 10% Fetal bovin serum Add-On: 1 µg/ml Doxycyclin 250nM Torin1. The source holds these as a separate data set.

For the molecule `O=C(O)c1ccc2c3c1cccc3c(=O)n1c3ccccc3nc21`, the ER-phagy suppression with U2OS [1] (Timepoint 12 hours) is listed as -11.121%; in the assay on U2OS [1] (Timepoint 24 hours), -24.1866%; in the assay with U2OS [1] (Timepoint 36 hours), -20.6591%; in the assay with U2OS [1] (Timepoint 60 hours), -29.8702%; with U2OS [2] (Timepoint 12 hours), -10.0258%; in the assay on U2OS [2] (Timepoint 24 hours), -24.8466%. Further, the ER-phagy suppression with U2OS [2] (Timepoint 36 hours) is -33.5835%; in the assay on U2OS [2] (Timepoint 54 hours), -29.9152%.
For the molecule `Cc1ccc(-c2ccc3c(ccc4sc5c(c43)NC[C@@H](C)NC5=O)n2)cn1`, the ER-phagy suppression is listed as 5.336% with U2OS [1] (Timepoint 12 hours); 5.52% in the assay on U2OS [1] (Timepoint 24 hours); 7.693% in the assay with U2OS [1] (Timepoint 36 hours); 5.525% with U2OS [1] (Timepoint 60 hours); -17.2516% in the assay with U2OS [2] (Timepoint 12 hours); -0.875% in the assay with U2OS [2] (Timepoint 24 hours). Further, the figures for the ER-phagy suppression in the assay on U2OS [2] (Timepoint 36 hours) and with U2OS [2] (Timepoint 54 hours) were 6.096% and 19.149%, respectively.
As to `CCn1c(=O)c(-c2ccc(Cl)cc2Cl)cc2cnc(Nc3ccc(N4CCNCC4)c(F)c3)nc21`, the ER-phagy suppression in the assay on U2OS [1] (Timepoint 12 hours) is reported as 36.4408%; in the assay on U2OS [1] (Timepoint 24 hours) it was 60.1254%; in the assay with U2OS [1] (Timepoint 36 hours), 62.8115%; in the assay with U2OS [1] (Timepoint 60 hours), 76.8114%; in the assay on U2OS [2] (Timepoint 12 hours), -49.4743%; with U2OS [2] (Timepoint 24 hours), -41.9787%. Also, the ER-phagy suppression in the assay on U2OS [2] (Timepoint 36 hours) is -21.5083%; in the assay on U2OS [2] (Timepoint 54 hours), -6.286%.
Take `CC(C)NC(=O)N1CC[C@H](NC2=Nc3cc(F)ccc3N(CC(F)F)c3ccc(Cl)cc32)C1`: the ER-phagy suppression with U2OS [1] (Timepoint 12 hours) is recorded as -0.3952%; in the assay with U2OS [1] (Timepoint 24 hours), -5.126%; in the assay on U2OS [1] (Timepoint 36 hours), -3.1%; in the assay with U2OS [1] (Timepoint 60 hours), -4.344%; in the assay on U2OS [2] (Timepoint 12 hours) it was -34.3378%; in the assay on U2OS [2] (Timepoint 24 hours), -42.165%. In addition, the values for the ER-phagy suppression in the assay on U2OS [2] (Timepoint 36 hours) and with U2OS [2] (Timepoint 54 hours) were -48.481% and -44.6081%, respectively.
Regarding `COc1cc(Nc2ccnc3ccc(Br)cc23)cc(OC)c1OC`, the ER-phagy suppression with U2OS [1] (Timepoint 12 hours) is given as 44.6642%; in the assay on U2OS [1] (Timepoint 24 hours) it was 57.8089%; with U2OS [1] (Timepoint 36 hours), 50.5911%; in the assay on U2OS [1] (Timepoint 60 hours) it was 41.5059%; in the assay on U2OS [2] (Timepoint 12 hours) it was 45.26%; in the assay with U2OS [2] (Timepoint 24 hours) it was 43.6651%. Besides, the ER-phagy suppression in the assay on U2OS [2] (Timepoint 36 hours) is on record as 45.8783%; in the assay on U2OS [2] (Timepoint 54 hours), 55.0501%.
Turning to `CN(C)C(=O)Cn1cc(-c2ccc(-c3cncc4ccccc34)cc2)cn1`, the ER-phagy suppression in the assay on U2OS [1] (Timepoint 12 hours) is recorded as -8.903%; in the assay with U2OS [1] (Timepoint 24 hours), 10.8163%; in the assay with U2OS [1] (Timepoint 36 hours) it was 25.7126%; in the assay on U2OS [1] (Timepoint 60 hours), 36.3142%; with U2OS [2] (Timepoint 12 hours), 5.324%; with U2OS [2] (Timepoint 24 hours) it was 37.0971%. In addition, the values for the ER-phagy suppression in the assay on U2OS [2] (Timepoint 36 hours) and in the assay on U2OS [2] (Timepoint 54 hours) were 57.9552% and 74.4134%, respectively.
Turning to `COc1cc(N(C)c2ccnc3ccc(C(F)(F)F)cc23)cc(OC)c1OC`, the ER-phagy suppression is recorded as -0.7345% in the assay on U2OS [1] (Timepoint 12 hours); 0.8414% in the assay with U2OS [1] (Timepoint 24 hours); -10.6797% with U2OS [1] (Timepoint 36 hours); -10.2278% in the assay with U2OS [1] (Timepoint 60 hours); 8.809% in the assay with U2OS [2] (Timepoint 12 hours); -16.6853% in the assay on U2OS [2] (Timepoint 24 hours). For the same molecule, the ER-phagy suppression was -22.3535% in the assay with U2OS [2] (Timepoint 36 hours) and -19.7391% with U2OS [2] (Timepoint 54 hours).
Turning to `CN1CCN(Cc2cc(NC(=O)c3ccc4c(c3)CN(c3ccccc3)CC4)cc(C(F)(F)F)c2)CC1`, the ER-phagy suppression in the assay with U2OS [1] (Timepoint 12 hours) was -14.1546%; in the assay on U2OS [1] (Timepoint 24 hours) it was -18.3974%; in the assay with U2OS [1] (Timepoint 36 hours), -8.125%; in the assay on U2OS [1] (Timepoint 60 hours) it was -14.9547%; with U2OS [2] (Timepoint 12 hours), 8.416%; in the assay on U2OS [2] (Timepoint 24 hours) it was 6.996%. Also, the ER-phagy suppression in the assay on U2OS [2] (Timepoint 36 hours) is 11.6775%; with U2OS [2] (Timepoint 54 hours), 26.4341%.
On to `Cc1cn(-c2cc(NC(=O)c3ccc4c(c3)CN(c3cncnc3)C[C@@H]4C)cc(C(F)(F)F)c2)cn1`, for which the ER-phagy suppression in the assay on U2OS [1] (Timepoint 12 hours) is given as -5.176%; in the assay with U2OS [1] (Timepoint 24 hours), -7.191%; in the assay with U2OS [1] (Timepoint 36 hours), -10.2809%; with U2OS [1] (Timepoint 60 hours), -23.2702%; with U2OS [2] (Timepoint 12 hours), -11.2753%; in the assay on U2OS [2] (Timepoint 24 hours) it was -32.01%. The ER-phagy suppression with U2OS [2] (Timepoint 36 hours) is -29.9662%; with U2OS [2] (Timepoint 54 hours), -28.2988%.
On to `CN(C)C(=O)/C(C#N)=C/c1ccc(-c2nc3cnc4[nH]ccc4c3n2C2CCCCC2)o1`, for which the ER-phagy suppression with U2OS [1] (Timepoint 12 hours) was -17.3558%; with U2OS [1] (Timepoint 24 hours) it was -33.4897%; in the assay with U2OS [1] (Timepoint 36 hours), -33.7439%; with U2OS [1] (Timepoint 60 hours), -36.9146%; in the assay with U2OS [2] (Timepoint 12 hours), -7.884%; with U2OS [2] (Timepoint 24 hours) it was -25.0962%. The ER-phagy suppression in the assay with U2OS [2] (Timepoint 36 hours) is -37.4199%; in the assay with U2OS [2] (Timepoint 54 hours) it was -35.162%.
Turning to `CCCCN(Cc1ccccc1)C(=O)c1ccc(S(=O)(=O)Nc2ccccc2)cc1`, the ER-phagy suppression in the assay on U2OS [1] (Timepoint 12 hours) was -1.971%; in the assay on U2OS [1] (Timepoint 24 hours) it was -6.76%; in the assay on U2OS [1] (Timepoint 36 hours) it was -4.753%; in the assay on U2OS [1] (Timepoint 60 hours) it was -26.4705%; in the assay with U2OS [2] (Timepoint 12 hours) it was -7.8361%; in the assay on U2OS [2] (Timepoint 24 hours), -20.651%. For the same molecule, the ER-phagy suppression is recorded as -23.4672% with U2OS [2] (Timepoint 36 hours) and -25.4681% in the assay on U2OS [2] (Timepoint 54 hours).
Regarding `CN(C)C(=O)/C(C#N)=C/c1ccc(-c2nc3cnc4c(ccn4C)c3n2C2CCCCC2)o1`, the ER-phagy suppression in the assay with U2OS [1] (Timepoint 12 hours) is -5.937%; in the assay with U2OS [1] (Timepoint 24 hours) it was -19.1708%; in the assay with U2OS [1] (Timepoint 36 hours) it was -21.5711%; with U2OS [1] (Timepoint 60 hours) it was -15.3462%; in the assay with U2OS [2] (Timepoint 12 hours) it was -7.575%; with U2OS [2] (Timepoint 24 hours) it was -15.5162%. Also, the ER-phagy suppression with U2OS [2] (Timepoint 36 hours) was -12.7474%; with U2OS [2] (Timepoint 54 hours) it was -14.5878%.
For `CN(C)C(=O)Cn1cc(-c2ccc(-c3nnc4ccccn34)cc2)cn1`, the ER-phagy suppression in the assay on U2OS [1] (Timepoint 12 hours) is listed as -17.2141%; in the assay with U2OS [1] (Timepoint 24 hours), -21.3564%; with U2OS [1] (Timepoint 36 hours), -13.477%; in the assay with U2OS [1] (Timepoint 60 hours), -20.2221%; with U2OS [2] (Timepoint 12 hours) it was -13.7824%; in the assay with U2OS [2] (Timepoint 24 hours), -23.4109%. Further, the ER-phagy suppression is -24.5481% in the assay on U2OS [2] (Timepoint 36 hours) and -15.5458% in the assay with U2OS [2] (Timepoint 54 hours).
Turning to `CN(C)C(=O)N1CC[C@H](NC2=Nc3cc(F)ccc3N(CC(F)F)c3ccc(Cl)cc32)C1`, the ER-phagy suppression was -14.7963% in the assay on U2OS [1] (Timepoint 12 hours); -22.2791% with U2OS [1] (Timepoint 24 hours); -19.1413% with U2OS [1] (Timepoint 36 hours); -31.4062% in the assay with U2OS [1] (Timepoint 60 hours); -18.0128% with U2OS [2] (Timepoint 12 hours); -30.8641% with U2OS [2] (Timepoint 24 hours). In addition, the ER-phagy suppression is -36.8246% in the assay with U2OS [2] (Timepoint 36 hours) and -25.6155% in the assay on U2OS [2] (Timepoint 54 hours).
Take `O=C1Nc2ccc(I)cc2/C1=C/c1cc(Br)c(O)c(Br)c1`: the ER-phagy suppression in the assay on U2OS [1] (Timepoint 12 hours) is reported as -13.4504%; in the assay with U2OS [1] (Timepoint 24 hours) it was -24.7924%; in the assay with U2OS [1] (Timepoint 36 hours), -11.7006%; with U2OS [1] (Timepoint 60 hours), -13.1814%; in the assay with U2OS [2] (Timepoint 12 hours), -35.4464%; with U2OS [2] (Timepoint 24 hours) it was -41.788%. Moreover, the ER-phagy suppression is reported as -41.037% with U2OS [2] (Timepoint 36 hours) and -30.605% in the assay with U2OS [2] (Timepoint 54 hours).
